# Assay results from ChEMBL document CHEMBL5727000, “Carboxamide or sulfonamide substituted thiazoles and related derivatives as modulators for the orphan nuclear receptor ROR[γ]” (2019).
# Several values for one entry are separate records, joined by “and”; a condition that tells them apart may be missing. Identical values can stand only once.
# Test: RORgamma Gal4 Reporter Gene Assay (REN): Cells were incubated for additional 16 h before renilla (REN) luciferase activities were measured sequentially in the same cell extract using a Dual-Light-Luciferase-Assay system (Dyer et al., Anal. Biochem. 2000, 282:158). All experiments were done at least in triplicates.
row,SMILES,IC50
1,CC(C)(C)c1cc(-c2cc(C(N)=O)ccc2CC2CCCCC2)cc(C(C)(C)C)c1,501 nM
2,CC(C)(C)NS(=O)(=O)c1ccc(-c2sc(C(=O)N[C@H]3C[C@H](C(=O)O)C3)nc2CC2CCCCC2)cc1C(C)(C)O,10 nM
3,CC(C)(C)NS(=O)(=O)c1ccc(-c2sc(C(=O)NC3CCS(=O)(=O)CC3)nc2C2CCCCC2)c2ccccc12,6.31 nM
4,CC(C)(C)NS(=O)(=O)c1ccc(-c2sc(C(=O)N[C@H]3C[C@H](C(=O)O)C3)nc2C2CCCCC2)c2ccccc12,10 nM
5,CC(C)(CO)NS(=O)(=O)c1ccc(-c2sc(C(=O)N3CC4(CCS(=O)(=O)CC4)C3)nc2CC2CCCCC2)c2ccccc12,79.4 nM
6,CC(C)(C)NS(=O)(=O)c1ccc(-c2sc(C(=O)NC3COC3)nc2CC2CCCCC2)c(Cl)c1Cl,3.16 nM
7,CC(C)(C)NS(=O)(=O)c1ccc(-c2sc(C(=O)NC3CSC3)nc2CC2CCCCC2)c2ccccc12,2 nM
8,CC(C)(C)NS(=O)(=O)c1ccc(-c2oc(C(=O)NC34CCC(C(=O)O)(CC3)CC4)nc2CC2CCCCC2)c2ccccc12,12.6 nM
9,CC1CCN(C(=O)c2nc(C(=O)NCC(C)(C)O)sc2-c2ccc(S(=O)(=O)NCC(F)(F)F)c3ccccc23)CC1,39.8 nM
10,CC(C)(C)NS(=O)(=O)c1ccc(-c2sc(C(=O)NC3CS(=O)(=O)C3)nc2CC2CCCCC2)cc1C(C)(C)O,12.6 nM
11,CC(C)(O)CNC(=O)c1nc(CC2CCCCC2)c(-c2ncc(S(=O)(=O)NC(C)(C)C)c3ccccc23)s1,20 nM
12,CC(C)(C)NS(=O)(=O)c1ccc(-c2sc(C(=O)NCC3(O)CCOCC3)nc2CC2CCCCC2)cc1C(C)(C)O,20 nM
13,O=C(NC1CCS(=O)(=O)CC1)c1nc(CC2CCCCC2)c(-c2ccc(N3CCOCC3)c3ccccc23)s1,126 nM
14,CC(C)(C)NS(=O)(=O)c1ccc(-c2sc(C(=O)NC3CCS(=O)(=O)CC3)nc2CC2CC2)c(Cl)c1Cl,31.6 nM
15,CC1CCN(C(=O)c2nc(C(=O)N3CC4(CCS(=O)(=O)CC4)C3)oc2-c2ccc(S(=O)(=O)NC(C)(C)C)c3ccccc23)CC1,2510 nM
16,CC(C)(C)c1cc(-c2sc(S(N)(=O)=O)nc2CC2CCCCC2)cc(C(C)(C)C)c1,398 nM
17,CCC(C)(C)NS(=O)(=O)c1ccc(-c2sc(C(=O)NCC(C)(C)O)nc2C(=O)N2CCC(C)CC2)c(Cl)c1C,3.16 nM
18,CC1CCN(C(=O)c2nc(C(=O)NCC(C)(C)O)sc2-c2ccc(S(=O)(=O)N[C@@H](C)C(F)(F)F)c3ccccc23)CC1,20 nM
19,CC1CCCCN1C(=O)c1nc(C(=O)NCC(C)(C)O)sc1-c1ccc(S(=O)(=O)NC(C)(C)C)c2ccccc12 (stereo not given),50.1 nM
20,CC(C)(C)NS(=O)(=O)c1ccc(-c2sc(C(=O)NN3CCOCC3)nc2CC2CCCCC2)c(Cl)c1Cl,2 nM
21,CC(C)(C)NS(=O)(=O)c1ccc(-c2sc(C(=O)NC3CCS(=O)(=O)CC3)nc2-c2cccc(Cl)c2)c2ccccc12,6.31 nM
22,CC(C)(C)NS(=O)(=O)c1ccc(-c2sc(C(=O)NCCC(C)(C)C(=O)O)nc2CC2CCCCC2)cc1C(F)(F)F,39.8 nM
23,CC(C)(C)NS(=O)(=O)c1ccc(-c2sc(C(=O)NCC3(C(=O)O)CCOCC3)nc2CC2CCCCC2)c(Cl)c1Cl,39.8 nM
24,CC(C)(O)c1cc(-c2sc(C(=O)N[C@H]3C[C@H](C(=O)O)C3)nc2CC2CCCCC2)cc(C2(C)CC2)c1,79.4 nM
25,CC(C)(C#N)CNC(=O)c1nc(CC2CCCCC2)c(-c2ccc(S(=O)(=O)NC(C)(C)C)c3ccccc23)s1,2 nM

row,SMILES,IC50
1,CC(C)(C)NS(=O)(=O)c1ccc(-c2oc(C(=O)N[C@H]3C[C@H](C(=O)NS(C)(=O)=O)C3)nc2CC2CCCCC2)c2ccccc12,200 nM
2,CC(C)(C)NS(=O)(=O)c1ccc(-c2nc(C(=O)NC3CCS(=O)(=O)CC3)sc2CC2CCCCC2)c2ccccc12,1 nM
3,CC(C)(C)c1cc(-c2oc(C(=O)NC3CCOCC3)nc2CC2CCCCC2)cc(C2(C)CC2)c1,126 nM
4,Cc1c(C(=O)NC(C)(C)C)cc(-c2sc(C(=O)N[C@H]3C[C@H](C(=O)O)C3)nc2CC2CCCCC2)cc1C1(C)CC1,158 nM
5,CC1CCN(C(=O)c2nc(C(=O)N3CC4(CCOCC4)C3)sc2-c2ccc(S(=O)(=O)NC(C)(C)C)c3ccccc23)CC1,63.1 nM
6,CC(C)(C)NS(=O)(=O)c1ccc(-c2sc(C(=O)NC3CC3)nc2CC2CCCCC2)c(Cl)c1Cl,10 nM
7,CC(C)(C)NS(=O)(=O)c1ccc(-c2sc(C(=O)NC3CCS(=O)(=O)CC3)nc2CC2CCC2)c2ccccc12,3.98 nM
8,CCC(C)(C)NS(=O)(=O)c1ccc(-c2sc(C(=O)NCc3ncc(S(C)(=O)=O)s3)nc2C(=O)N2CCC(C)CC2)c(Cl)c1C,20 nM
9,CC(C)(C)NS(=O)(=O)c1ccc(-c2nc(C(=O)NC34CCC(C(=O)O)(CC3)CC4)oc2CC2CCCCC2)c2ccccc12,39.8 nM
10,CCC1CCN(C(=O)c2nc(C(=O)NCC(C)(C)O)sc2-c2ccc(S(=O)(=O)NC(C)(C)C)c3ccccc23)CC1,31.6 nM
11,O=C(c1nc(CC2CCCCC2)c(-c2ccc(S(=O)(=O)NC3CS(=O)(=O)C3)c3ccccc23)s1)N1CC2(CCS(=O)(=O)CC2)C1,398 nM
12,CNS(=O)(=O)c1ccc(-c2sc(C(=O)N3CC4(CCS(=O)(=O)CC4)C3)nc2CC2CCCCC2)c2ccccc12,251 nM
13,CC(C)(C)NS(=O)(=O)c1ccc(-c2sc(C(=O)NC3CCS(=O)(=O)CC3)nc2CC2CCCCC2)c(Cl)c1Cl,2 nM
14,CC(C)(CNC(=O)c1nc(CC2CCCCC2)c(-c2cc(C(C)(C)C)cc(C3(C)CC3)c2)o1)C(=O)O,251 nM
15,CC(C)(C)NS(=O)(=O)c1ccc(-c2sc(C(=O)N3CC(C(C)(C)C(=O)O)C3)nc2CC2CCCCC2)c(Cl)c1Cl,126 nM
16,CC(C)(C)NS(=O)(=O)c1ccc(-c2sc(C(=O)N[C@H]3C[C@H](C(=O)O)C3)nc2CC2CCCCC2)cc1C(F)(F)F,10 nM
17,CC(C)(C)NS(=O)(=O)c1ccc(-c2oc(C(=O)NC3CCOCC3)nc2CC2CCCCC2)cc1C(C)(C)C,501 nM
18,C[C@H](NS(=O)(=O)c1ccc(-c2sc(C(=O)NCC(C)(C)O)nc2CC2CCC2)c(Cl)c1)C(F)(F)F,12.6 nM
19,CC1(c2cc(-c3sc(C(=O)N[C@H]4C[C@H](C(=O)O)C4)nc3CC3CCCCC3)cc(C(F)(F)F)c2)CC1,79.4 nM
20,CC(C)(C)NS(=O)(=O)c1ccc(-c2sc(C(=O)N[C@H]3C[C@H](C(=O)O)C3)nc2CC2CCCCC2)c(C(F)F)c1Cl,3.16 nM
21,COC(c1nc(C(=O)NC2CCOCC2)sc1-c1ccc(S(=O)(=O)NC(C)(C)C)c(C(C)(C)C)c1)C1CCCCC1 (stereo not given),200 nM
22,CC1(NC(=O)c2cc(-c3sc(C(=O)NC4CCS(=O)(=O)CC4)nc3CC3CCCCC3)cc(C3(C)CC3)c2)COC1,12.6 nM
23,CC(C)(C)NS(=O)(=O)c1ccc(-c2sc(C(=O)NN3CCS(=O)(=O)CC3)nc2CC2CCCCC2)c(Cl)c1Cl,2 nM
24,CC(C)(C)NS(=O)(=O)c1ccc(-c2sc(C(=O)N[C@H]3C[C@H](C(=O)O)C3)nc2CC2CCCCC2)c2c1CCC2,3.16 nM
25,CC(C)(C)NS(=O)(=O)c1ccc(-c2sc(C(=O)NCCC(C)(C)C(=O)O)nc2CC2CCCCC2)c(Cl)c1Cl,6.31 nM

row,SMILES,IC50
1,C[C@H](NC(=O)c1cc(-c2sc(C(=O)NCC(C)(C)c3nnn[nH]3)nc2CC2CCCCC2)cc(C2(C)CC2)c1)C(F)(F)F,31.6 nM
2,CC(C)(C)NS(=O)(=O)c1ccc(-c2sc(C(=O)NC34CCC(C(=O)O)(CC3)CC4)nc2CC2CCCCC2)c2ccccc12,6.31 nM
3,COC(c1nc(C(=O)NC2CCOCC2)sc1-c1cc(C(C)(C)C)cc(C2(C)CC2)c1)C1CCCCC1 (stereo not given),79.4 nM
4,CC(C)(C)c1cc(-c2sc(C(=O)N[C@H]3C[C@H](C(=O)O)C3)nc2CC2CCCCC2)cc(C(C)(F)F)c1,39.8 nM
5,CC(C)(C)NS(=O)(=O)c1ccc(-c2sc(C(=O)NCCN3CCOCC3)nc2CC2CCCCC2)cc1C(C)(C)O,200 nM
6,CC1CCN(C(=O)c2nc(C(=O)N3CC4(CCS(=O)(=O)CC4)C3)sc2-c2ccc(S(=O)(=O)NC(C)(C)C)c3ccccc23)CC1,251 nM
7,CC(C)COc1cc(-c2sc(C(=O)N[C@H]3C[C@H](C(=O)O)C3)nc2CC2CCCCC2)cc(C(C)(C)C)n1,39.8 nM
8,CC(O)c1c(S(=O)(=O)NC(C)(C)C)ccc(-c2sc(C(=O)N3CC4(CCS(=O)(=O)CC4)C3)nc2CC2CCCCC2)c1Cl (stereo not given),200 nM
9,CC(C)(C)NS(=O)(=O)c1ccc(-c2sc(C(=O)NC3C[S+]([O-])C3)nc2CC2CCCCC2)cc1C(C)(C)O (stereo not given),10 nM and 50.1 nM
10,CC1CC(C)CN(C(=O)c2nc(C(=O)NCC(C)(C)O)sc2-c2ccc(S(=O)(=O)NC(C)(C)C)c3ccccc23)C1 (stereo not given),126 nM
11,CC(C)(C)NS(=O)(=O)c1ccc(-c2sc(C(=O)NC3CCOCC3)nc2CC2CCCCC2)cc1C(C)(C)O,20 nM
12,COC(c1nc(C(=O)N[C@H]2C[C@H](C(=O)O)C2)sc1-c1cc(C(C)(C)C)cc(C2(C)CC2)c1)C1CCCCC1 (stereo not given in full),100 nM
13,CC(C)(CCNC(=O)c1nc(CC2CCCCC2)c(-c2cc(C(C)(C)C)cc(C3(C)CC3)c2)s1)C(=O)O,100 nM
14,CC(C)(O)c1cc(-c2sc(C(=O)N[C@H]3C[C@@H](C(=O)O)C3)nc2CC2CCCCC2)cc(C2(C)CC2)c1,63.1 nM
15,CN(C(=O)c1nc(CC2CCCCC2)c(-c2cc(C(C)(C)C)cc(C3(C)CC3)c2)s1)C1CCOCC1,126 nM
16,CC(C)(C)NS(=O)(=O)c1ccc(-c2sc(C(=O)NC3CSC3)nc2CC2CCCCC2)c(Cl)c1Cl,2 nM
17,CCCc1nc(C(=O)NCC(C)(C)O)sc1-c1ccc(S(=O)(=O)N[C@@H](C)C(F)(F)F)c2ccccc12,12.6 nM
18,CC(C)(C)c1cc(-c2ccc(C(N)=O)cc2CC2CCCCC2)cc(C(C)(C)C)c1,631 nM
19,CC(C)(C)NS(=O)(=O)c1ccc(-c2sc(C(=O)NC3CCC(C(=O)O)C3)nc2CC2CCCCC2)c2ccccc12 (stereo not given),3.98 nM
20,CC(C)(C)c1cc(-c2nc(C(N)=O)sc2CC2CCCCC2)cc(C(C)(C)C)c1,1580 nM
21,C[C@H](NS(=O)(=O)c1ccc(-c2sc(C(=O)NCC(C)(C)O)nc2CC2CCC2)c(C(F)(F)F)c1)C(F)(F)F,20 nM
22,CC(C)(C)NS(=O)(=O)c1ccc(-c2sc(C(=O)NC3CCS(=O)(=O)CC3)nc2CC2CCCCC2)c2ccncc12,12.6 nM
23,CC(C)(C)c1cc(-c2oc(C(N)=O)nc2CC2CCCCC2)cc(C(C)(C)C)c1,1580 nM
24,CC(C)(C)NS(=O)(=O)c1ccc(-c2sc(S(N)(=O)=O)nc2CC2CCCCC2)cc1C(C)(C)C,251 nM
25,CC1CCN(C(=O)c2nc(C(=O)NCC(C)(C)O)sc2-c2ccc(S(=O)(=O)NCC(C)(C)O)c3ccccc23)CC1,1580 nM
